For the assay, the target named is Human GLP-1R (Homo sapiens, UniProt P43220). Description: GLP-1R agonist activity, HTRF cAMP detection in 293A GFP-GLP-1R cells. As to conditions: for Emax: 293A. More on the design: Emax: dose or concentration left out as unconfirmed. (In general: In TR-FRET formats the signal depends on donor and acceptor labels being close together.)
Setting [1] is: cAMP level, 293A GFP-GLP-1R cells, 30 min incubation, geometric mean.

The structures appear in SMILES notation. Read-outs that look alike come from different tables or passages of the source.

These results are taken from patent publication US12668587B2, “Benzimidazolone GLP-1 receptor agonist and use thereof” (HANGZHOU ZHONGMEIHUADONG PHARMACEUTICAL CO., LTD., priority 2020, dated 2026).

Human GLP-1R, sequence (P43220 24-463): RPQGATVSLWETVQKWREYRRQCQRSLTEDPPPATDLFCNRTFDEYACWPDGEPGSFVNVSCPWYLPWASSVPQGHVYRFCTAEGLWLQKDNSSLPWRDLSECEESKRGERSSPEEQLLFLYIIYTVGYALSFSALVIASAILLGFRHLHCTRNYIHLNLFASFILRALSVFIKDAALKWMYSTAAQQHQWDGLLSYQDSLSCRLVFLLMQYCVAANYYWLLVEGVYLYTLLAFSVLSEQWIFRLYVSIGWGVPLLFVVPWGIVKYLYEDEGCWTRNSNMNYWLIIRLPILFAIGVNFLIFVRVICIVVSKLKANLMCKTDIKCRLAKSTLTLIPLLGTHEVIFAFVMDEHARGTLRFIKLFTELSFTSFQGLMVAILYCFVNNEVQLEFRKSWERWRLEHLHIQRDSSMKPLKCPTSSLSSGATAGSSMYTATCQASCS
Experimental: GLP-1R-mediated agonist activity was determined by cell-based assays using a homogeneous time-resolved fluorescence (i.e., HTRF)-based cAMP detection kit, which measures the level of cAMP in cells. The method was a competitive immunoassay. It enabled direct pharmacological characterization of compounds acting on Gs-coupled receptors in adherent or suspending cells.
The standard curve of native cAMP or unlabeled cAMP produced by cells competed with d2-labeled cAMP red receptors to bind monoclonal anti-cAMP Eu3+ cryptate donors, and the specific signal was inversely proportional to the concentration of cAMP in standard or tested samples.
Human GLP-1R encoding sequence (NCBI reference sequence NP_002053.3) was subcloned into pEGFP-N1 (tsingke), and the cell line stably expressing the receptor was isolated. The expression density of GLP-1R was confirmed by the expression of GFP observed under a fluorescence microscope.
Cells were collected from a T25 tissue culture flask and centrifuged at room temperature at 1000 rpm for 5 minutes. The cell precipitates were then re-suspended in 1 mL of the stimulating buffer. 20 μL sample of cell suspension was counted on a counter STAR IC 1000 to determine the cell viability and the cell count per mL. The remaining cell suspension was then regulated with the stimulating buffer to deliver 2000 living cells per well using a multi-channel pipette. 5 μL of the cell suspension was added to each well of the plate which already contained the compound. The plate was sealed and incubated at 37° C. with 5% CO2 for 30 minutes.
After 30 minutes of incubation, 5 μL of d2-labeled cAMP and 5 μL of anti-cAMP cryptate (both 1: 20 diluted in the cell lysis buffer) were added to each well of the plate. The plate was then incubated at room temperature for 60 minutes, and the changes of HTRF signal were read with Tecan Spark reader: absorbance values at 340 nm (excitation)/at 615 nm and 665 nm (emission). Raw data were converted into nM cAMP by interpolation from the cAMP standard curve, and the effect in percentage was determined relative to the saturated concentration of the complete agonist GLP-17˜37 (400 nM) contained in each plate. Determination of EC50 was performed based on the agonist dose-response curve, which was analyzed using a four-parameter logical dose-response equation with a curve fitting program.
The test data presented the results in the form of a geometric mean (EC50s) based on the number of repetition times.

The EC50 is the concentration that produces a half-maximal response. Broadly, the Emax is the greatest response seen or fitted, relative to the assay's reference. For `CC(=O)c1ccc(COc2cccc(C3CCN(Cc4nc5ccc(C(=O)O)cc5n4C[C@@H]4CCO4)CC3)n2)cc1` [Compound 16, (S)-2-((4-(6-((4-acetylbenzyl)oxy)pyridin-2-yl)piperidin-1-yl)methyl)-1-(oxetan-2-ylmethyl)-1H-benzo[d]imidazole-6-carboxylic acid], it took 7.19 nM to reach a half-maximal effect (EC50) and the Emax was found to be 88.2%.
Taken in the same sequence, the figures for `CC(=O)c1ccc(F)c(COc2cccc(C3CCN(Cc4nc5ccc(C(=O)O)cc5n4C[C@@H]4CCO4)CC3)n2)c1` [Compound 14, (S)-2-((4-(6-((5-acetyl-2-fluorobenzyl)oxy)pyridin-2-yl)piperidin-1-yl)methyl)-1-(oxetan-2-ylmethyl)-1H-benzo[d]imidazole-6-carboxylic acid] were 705 nM and 109%.
Taken in the same sequence, the figures for `COc1cc(COc2cccc(C3=CCN(Cc4nc5ccc(C(=O)O)cc5n4C[C@@H]4CCO4)CC3)n2)ccc1C(C)=O` [Compound 23, (S)-2-((6-((4-acetyl-3-methoxybenzyl)oxy)-3′,6′-dihydro-[2,4′-bipyridin]-1′(2′H)-yl)methyl)-1-(oxetan-2-ylmethyl)-1H-benzo[d]imidazole-6-carboxylic acid] were 16.1 nM and 108%.
Taken in the same sequence, the figures for `CN(C)C(=O)c1ccc(COc2cccc(C3CCN(Cc4nc5ccc(C(=O)O)cc5n4C[C@@H]4CCO4)CC3)n2)c(F)c1` [Compound 24, (S)-2-((4-(6-((4-(dimethylcarbamoyl)-2-fluorobenzyl)oxy)pyridin-2-yl)piperidin-1-yl)methyl)-1-(oxetan-2-ylmethyl)-1H-benzo[d]imidazole-6-carboxylic acid] were above 1000 nM and 25.8%.
`COc1cc(COc2cccc(C3CCN(Cc4nc5ccc(C(=O)O)cc5n4C[C@@H]4CCO4)CC3)n2)c(F)cc1C(=O)C1CC1` [Compound 37, (S)-2-((4-(6-((4-(cyclopropanecarbonyl)-2-fluoro-5-methoxybenzyl)oxy)pyridin-2-yl)piperidin-1-yl)methyl)-1-(oxetan-2-ylmethyl)-1H-benzo[d]imidazole-6-carboxylic acid] registered an EC50 of 228 nM and an Emax of 68.5%.
The molecule `O=C(O)c1ccc2nc(CN3CCC(c4cccc(OCc5ccc(C(=O)C6CC6)cc5F)n4)CC3)n(C[C@@H]3CCO3)c2c1` [Compound 7, (S)-2-((4-(6-((4-(cyclopropanecarbonyl)-2-fluorobenzyl)oxy)pyridin-2-yl)piperidin-1-yl)methyl)-1-(oxetan-2-ylmethyl)-1H-benzo[d]imidazole-6-carboxylic acid] came in with an Emax of 103%. The EC50 under setting [1] stood at 0.75 nM.
Take `CS(=O)(=O)c1ccc(COc2cccc(C3CCN(Cc4nc5ccc(C(=O)O)cc5n4C[C@@H]4CCO4)CC3)n2)c(F)c1` [Compound 2, (S)-2-((4-(6-((2-fluoro-4-(methylsulfonyl)benzyl)oxy)pyridin-2-yl)piperidin-1-yl)methyl)-1-(oxetan-2-methyl)-1H-benzo[d]imidazole-6-carboxylic acid]: the half-maximal effective concentration (EC50) is above 1000 nM and the Emax was found to be 29.8%.
Molecule `O=C(O)c1ccc2nc(Cc3ccc(-c4cccc(OCc5ccc(C(=O)C6CC6)cc5F)n4)cc3F)n(CC3(CF)CC3)c2c1` [Compound 48] returned an EC50 of 0.065 nM.
Still for that read-out and setting: to `O=C(O)c1ccc2nc(CN3CCC(c4cccc(OCc5ccc(C(=O)C6CC6)cc5Cl)n4)CC3)n(C[C@@H]3CCO3)c2c1` [Compound 44, (S)-2-((4-(6-((2-chloro-4-(cyclopropanecarbonyl)benzyl)oxy)pyridin-2-yl)piperidin-1-yl)methyl)-1-(oxetan-2-ylmethyl)-1H-benzo[d]imidazole-6-carboxylic acid] belongs 0.02 nM.
`Cc1cc(C(=O)C2CC2)ccc1COc1cccc(N2CCN(Cc3nc4ccc(C(=O)O)cc4n3C[C@@H]3CCO3)[C@@H](C)C2)n1` [Compound 41, 2-(((S)-4-(6-((4-(cyclopropanecarbonyl)-2-methylbenzyl)oxy)pyridin-2-yl)-2-methylpiperazin-1-yl)methyl)-1-(((S)-oxetan-2-yl)methyl)-1H-benzo[d]imidazole-6-carboxylic acid] registered an EC50 above 1000 nM and an Emax of 77.3%.
Molecule `CCOc1cc(C(C)=O)ccc1COc1cccc(C2CCN(Cc3nc4ccc(C(=O)O)cc4n3C[C@@H]3CCO3)CC2)n1` [Compound 30, (S)-2-((4-(6-((4-acetyl-2-ethoxybenzyl)oxy)pyridin-2-yl)piperidin-1-yl)methyl)-1-(oxetan-2-ylmethyl)-1H-benzo[d]imidazole-6-carboxylic acid] had an EC50 of 0.91 nM and a maximal effect (Emax) of 112%.
Taken in the same sequence, the figures for `CC(=O)c1cc(F)c(COc2cccc(C3CCN(Cc4nc5ccc(C(=O)O)cc5n4C[C@@H]4CCO4)CC3)n2)c(F)c1` [Compound 13, (S)-2-((4-(6-((4-acetyl-2,6-difluorobenzyl)oxy)pyridin-2-yl)piperidin-1-yl)methyl)-1-(oxetan-2-ylmethyl)-1H-benzo[d]imidazole-6-carboxylic acid] were 40 nM and 88.5%.
For `CC(=O)c1ccc(COc2cccc(C3CCN(Cc4nc5ccc(C(=O)O)cc5n4C[C@@H]4CCO4)CC3)n2)c(Cl)c1` [Compound 27] the same measures were 0.13 nM and 83.9%.
For `COc1cc(C(C)=O)ccc1COc1cccc(C2CCN(Cc3nc4ccc(C(=O)O)cc4n3C[C@@H]3CCO3)CC2)n1` [Compound 12, (S)-2-((4-(6-((4-acetyl-2-methoxybenzyl)oxy)pyridin-2-yl)piperidin-1-yl)methyl)-1-(oxetan-2-ylmethyl)-1H-benzo[d]imidazole-6-carboxylic acid] the same measures were 0.25 nM and 147%.
For the molecule `CC(=O)c1ccc(COc2cccc(C3CCN(Cc4nc5ccc(C(=O)O)cc5n4C[C@@H]4CCO4)CC3)n2)c(F)c1` [Compound 1, (S)-2-((4-(6-((4-acetyl-2-fluorobenzyl)oxy)pyridin-2-yl)piperidin-1-yl)methyl)-1-(oxetan-2-ylmethyl)-1H-benzo[d]imidazole-6-carboxylic acid], the midpoint of the response, the EC50, lay at 0.85 nM and the Emax amounted to 111%.
Taken in the same sequence, the figures for `CC(=O)c1ccc(COc2cccc(C3CCN(Cc4nc5ccc(C(=O)O)nc5n4C[C@@H]4CCO4)CC3)n2)c(F)c1` [Compound 5, (S)-2-((4-(6-((4-acetyl-2-fluorobenzyl)oxy)pyridin-2-yl)piperidin-1-yl)methyl)-3-(oxetan-2-ylmethyl)-3H-imidazo[4,5-b]pyridine-5-carboxylic acid] were 0.54 nM and 81.3%.
Taken in the same sequence, the figures for `CC(=O)c1ccc(COc2cccc(C3CCN(Cc4nc5ccc(C(=O)O)cc5n4C[C@@H]4CCO4)CC3)n2)c(OC(F)(F)F)c1` [Compound 21, (S)-2-((4-(6-((4-acetyl-2-(trifluoromethoxy)benzyl)oxy)pyridin-2-yl)piperidin-1-yl)methyl)-1-(oxetan-2-ylmethyl)-1H-benzo[d]imidazole-6-carboxylic acid] were 95.3 nM and 91.8%.
In turn, `O=C(O)c1ccc2nc(CN3CCC(c4cccc(OCc5ccc(C(=O)c6cccnc6)cc5F)n4)CC3)n(C[C@@H]3CCO3)c2c1` [Compound 8, (S)-2-((4-(6-((2-fluoro-4-nicotinoylbenzyl)oxy)pyridin-2-yl)piperidin-1-yl)methyl)-1-(oxetan-2-ylmethyl)-1H-benzo[d]imidazole-6-carboxylic acid] showed an Emax of 88%. Besides, under setting [1], the EC50 stood at 23.7 nM.
In turn, `CC(=O)c1ccc(COc2cccc(C3CCN(Cc4nc5ccc(C(=O)O)cc5n4C[C@@H]4CCO4)CC3)n2)c(C(F)(F)F)c1` [Compound 11, (S)-2-((4-(6-((4-acetyl-2-(trifluoromethyl)benzyl)oxy)pyridin-2-yl)piperidin-1-yl)methyl)-1-(oxetan-2-ylmethyl)-1H-benzo[d]imidazole-6-carboxylic acid] had an EC50 of 42.5 nM and an Emax of 85.5%.
Taken in the same sequence, the figures for `CC(=O)c1ccc(COc2cccc(C3CCN(Cc4nc5ccc(C(=O)O)cc5n4C[C@@H]4CCO4)CC3)n2)nc1` [Compound 9, (S)-2-((4-(6-((5-acetylpyridin-2-yl)methoxy)pyridin-2-yl)piperidin-1-yl)methyl)-1-(oxetan-2-ylmethyl)-1H-benzo[d]imidazole-6-carboxylic acid] were 27 nM and 83.4%.
`O=C(O)c1ccc2nc(Cc3ccc(-c4cccc(OCc5ccc(C(=O)C6CC6)cc5F)n4)cc3F)n(C[C@@H]3CCO3)c2c1` [Compound 46] returned an EC50 of 0.02 nM.
In turn, `CC(=O)c1cccc(COc2cccc(C3CCN(Cc4nc5ccc(C(=O)O)cc5n4C[C@@H]4CCO4)CC3)n2)c1` [Compound 18, (S)-2-((4-(6-((3-acetylbenzyl)oxy)pyridin-2-yl)piperidin-1-yl)methyl)-1-(oxetan-2-ylmethyl)-1H-benzo[d]imidazole-6-carboxylic acid] yielded a concentration for a half-maximal effect (EC50) of 22.1 nM and an Emax of 113%.
`O=C(O)c1ccc2nc(CN3CCC(c4cccc(OCc5ccc(C(=O)C6CC6)cc5F)n4)CC3)n(CC3(CF)CC3)c2c1` [Compound 47]: the response was half-maximal at 0.01 nM (EC50).
For `COc1cc(C(=O)C2CC2)cc(F)c1COc1cccc(C2CCN(Cc3nc4ccc(C(=O)O)cc4n3C[C@@H]3CCO3)CC2)n1` [Compound 36, (S)-2-((4-(6-((4-(cyclopropanecarbonyl)-2-fluoro-6-methoxybenzyl)oxy)pyridin-2-yl)piperidin-1-yl)methyl)-1-(oxetan-2-ylmethyl)-1H-benzo[d]imidazole-6-carboxylic acid], the EC50 came to 20.4 nM and the Emax stood at 84.9%.
For `CP(C)(=O)c1ccc(COc2cccc(C3CCN(Cc4nc5ccc(C(=O)O)cc5n4C[C@@H]4CCO4)CC3)n2)c(F)c1` [Compound 6, (S)-2-((4-(6-((4-(dimethylphosphoryl)-2-fluorobenzyl)oxy)pyridin-2-yl)piperidin-1-yl)methyl)-1-(oxetan-2-ylmethyl)-1H-benzo[d]imidazole-6-carboxylic acid] the same measures were above 1000 nM and 7.07%.
